Measurements published in ChEMBL document CHEMBL4739717, “Methods of treating cartilage disorders through inhibition of clk and dyrk” (2020).

What was measured:
[1] = Induction of chondrogenesis in human MSC assessed as incubated for 6 days by rhodamine B and Nile red staining based imaging analysis; format: functional; settings: bmmsc
[2] = Induction of chondrogenesis in human MSC assessed as maximum activity at 300 nM incubated for 6 days by rhodamine B and Nile red staining based imaging analysis relative to control; format: functional; settings: BMMSC, 144 h, time 6 day
[3] = Effect on Wnt signaling pathway in human SW480 cells harbouring TCF/LEF luciferase reporter gene and SP5-Luc reporter gene incubated for 36 to 48 hrs by luminescence assay; format: cell-based
[4] = molecular target: Dual specificity tyrosine-phosphorylation-regulated kinase 1A (Homo sapiens, UniProt Q13627); assay: Inhibition of recombinant DYRK1A (unknown origin) using Ser/Thr 18 peptide as substrate incubated for 1 hr in presence of ATP by FRET assay

| EC50 [1] [nM] | EC50 [3] [nM] | EC50 [4] [nM] | Structure (SMILES) | Emax at 0.3 µM [2] [%] |
| --- | --- | --- | --- | --- |
| 100 | 5 |  | COc1ccc(NC(=O)c2n[nH]c3ccc(-c4cncc(CN5CCC(F)(F)C5)c4)cc23)cn1 | 72.2 |
|  | 960 | 2 | CCC(=O)Nc1cncc(-c2cnc3[nH]nc(-c4cc5cnccc5[nH]4)c3c2)c1 | 16.9 |
|  | 1470 | 3 | CCCCC(=O)Nc1cncc(-c2cnc3[nH]nc(-c4cc5cnccc5[nH]4)c3c2)c1 | 30.8 |
|  | 1510 | 13 | FC1(F)CCN(Cc2cncc(-c3cnc4[nH]nc(-c5cc6c(-c7ccncc7)cncc6[nH]5)c4c3)c2)C1 | 36.5 |
|  | 4070 | 23 | O=C(Nc1cncc(-c2cc3c(-c4cc5c(N6CCCCC6)nccc5[nH]4)n[nH]c3cn2)c1)C1CCC1 | 42.4 |
|  | 23.3 | 14 | O=C(Nc1cncc(-c2cnc3[nH]nc(-c4nc5c(-c6cccnc6)cncc5[nH]4)c3c2)c1)C1CC1 | 86.3 |
|  | 35.3 | 30 | CC(C)(C)C(=O)Nc1cncc(-c2cc3c(-c4nc5c(-c6ccc(F)s6)nccc5[nH]4)n[nH]c3cn2)c1 | 40.9 |
|  | 131 | 34 | Nc1cncc(-c2ccc3[nH]nc(-c4cc5c(-c6ccccc6F)ccnc5[nH]4)c3c2)c1 | 23.5 |
|  | 3480 | 12 | CN1CCN(c2cncc3[nH]c(-c4n[nH]c5ccc(-c6cncc(NC(=O)CC(C)(C)C)c6)cc45)cc23)CC1 | 30.8 |
|  | > 10000 | 72 | c1cncc(-c2ccnc3[nH]c(-c4n[nH]c5cnc(-c6cncc(CN7CCCC7)c6)cc45)cc23)c1 | 16.7 |
|  | > 10000 | 71 | CN(C)Cc1cncc(-c2cc3c(-c4cc5c(-c6ccncc6)ccnc5[nH]4)n[nH]c3cn2)c1 | 33.4 |
|  | 7690 | 15 | CC(C)C(=O)Nc1cncc(-c2ccc3[nH]nc(-c4cc5c(N6CCN(C)CC6)nccc5[nH]4)c3c2)c1 | 21 |
|  | 523 | 10 | FC1(F)CCN(Cc2cncc(-c3ccc4[nH]nc(-c5cc6c(-c7cccnc7)ccnc6[nH]5)c4c3)c2)C1 | 20.3 |
|  | > 10000 | 100 | c1cncc(-c2ccnc3[nH]c(-c4n[nH]c5cnc(-c6cncnc6)cc45)cc23)c1 | 49.6 |
|  | > 10000 | 45 | CC(C)C(=O)Nc1cncc(-c2cc3c(-c4cc5c(-c6ccncc6)nccc5[nH]4)n[nH]c3cn2)c1 | 32.1 |
|  | 3850 | 31 | O=C(Nc1cncc(-c2cnc3[nH]nc(-c4cc5c(N6CCCCC6)nccc5[nH]4)c3c2)c1)C1CC1 | 42.5 |
|  | > 10000 | 7 | c1cncc(-c2cncc3[nH]c(-c4n[nH]c5ncc(-c6cncnc6)cc45)cc23)c1 | 24.1 |
|  | > 10000 | 25 | CN1CCN(c2nccc3[nH]c(-c4n[nH]c5ccc(-c6cncc(NC(=O)CC7CCNCC7)c6)cc45)cc23)CC1 | 42.8 |
|  | 8 | 70 | CCCC(=O)Nc1cncc(-c2cnc3[nH]nc(-c4nc5c(-c6ccccc6F)cncc5[nH]4)c3c2)c1 | 82.8 |
|  | 3850 | 30 | FC1(F)CCN(Cc2cncc(-c3ccc4[nH]nc(-c5cc6c(-c7cccnc7)cncc6[nH]5)c4n3)c2)C1 | 23.3 |
|  | 3410 | 70 | CC(C)Nc1cncc(-c2cnc3[nH]nc(-c4cc5c(N6CCCCC6)nccc5[nH]4)c3c2)c1 | 33.6 |
|  | 643 | 35 | COc1cncc(-c2ccc3[nH]nc(-c4cc5c(-c6ccoc6)nccc5[nH]4)c3c2)c1 | 35.5 |
|  | 8 | 42 | O=C(Nc1cncc(-c2ccc3[nH]nc(-c4nc5ccncc5[nH]4)c3c2)c1)C1CC1 | 93.8 |
